Data published in patent US20250353873A1, “COMPOUNDS AND METHODS FOR MODULATING APOE EXPRESSION” (Ionis Pharmaceuticals, Inc., priority 2024, published 2025).
Several values for one entry are separate records, joined by “and”; a condition that tells them apart may be missing. Equal entries are not always repeated. Strand notation (5' to 3'): a small letter for the sugar, then the base; units joined by * are phosphorothioate-linked, units joined directly phosphodiester-linked; [ ] holds rarer units or linkages, { } end groups; capitals alone tell only the bases. [ms] = mesyl phosphoramidate linkage; k = constrained ethyl (cEt); [5mC] = 5-methylcytosine; d = 2'-deoxy (DNA)

Assays:
human APOE RNA [1] = experiment: Activity in APOE C57BL/6NTac-Apoeem7250 knock-in mice, single ICV bolus, 4 weeks (Example 10); assay type: in vivo; details: single ICV bolus 300 μg, 4 weeks post treatment, normalized to mouse Ppia
Procedure, shortened: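 Human APOE RNA, quantified by real-time RT-PCR with RTS3073 and normalized to mouse Ppia, was read in cortical brain and spinal cord 4 weeks post dosing. Dosing was a single ICV bolus of 300 μg per knock-in mouse; values are % of PBS-treated animals.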

human APOE RNA [2] = experiment: Activity in APOE C57BL/6NTac-Apoeem7250 knock-in mice, single ICV bolus, 8 weeks (Example 11); assay type: in vivo; details: single ICV bolus 300 μg, 8 weeks post treatment, normalized to mouse Ppia
Procedure, shortened: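 Cortical and spinal cord human APOE RNA quantified by RT-qPCR 8 weeks after a single 300 μg ICV dose in knock-in mice, Ppia-normalized. Values are percent of levels in PBS-treated animals.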

human APOE RNA [3] = experiment: Duration of action study in APOE C57BL/6NTac-Apoeem7250 knock-in mice (Example 16); assay type: in vivo; details: 300 μg ICV
Method: Modified oligonucleotides described above were tested in the APOE C57BL/6NTac-Apoeem7250 knock-in mouse model described above.
APOE C57BL/6NTac-Apoeem7250 knock-in mice were divided into groups of 2-4 mice each. Each mouse received a single intracerebroventricular (ICV) bolus of 300 μg of modified oligonucleotide. A group of 2-4 mice received a single ICV bolus with PBS as a negative control.
Mice were sacrificed at various timepoints as indicated in the table below and RNA was extracted from cortical brain tissue and spinal cord for quantitative real-time RT-PCR analysis of RNA expression of APOE using primer probe set RTS3073 (described herein above). APOE RNA levels were normalized to mouse Ppia. Mouse Ppia was amplified using primer probe set m_cyclo24 (described herein above). Results are presented as percent human APOE RNA relative to the amount of human APOE RNA in PBS treated animals, (% control). Each experiment is identified in separate tables below.

human APOE RNA [4] = experiment: Dose-dependent inhibition of human APOE RNA in HepG2 cells, electroporation, 50,000 cells per well, RT-PCR normalized to GAPDH (Example 4, Tables 8-10); assay type: cell-based; details: HepG2, electroporation, 24-hour treatment
Procedure, shortened: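 Readout is percent APOE RNA versus untreated controls, measured by RT-PCR (primer probe set RTS3073) and normalized to human GAPDH. Modified oligonucleotides were delivered by electroporation at varying doses into HepG2 cells plated at 50,000 per well.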

human APOE RNA [5] = experiment: Dose-dependent inhibition of human APOE RNA in differentiated SH-SY5Y cells, free uptake, 5 days (Example 5); assay type: cell-based; details: 5 days (Table 14)
Method: Modified oligonucleotides selected from the examples above were tested at various doses in differentiated SH-SY5Y cells. The modified oligonucleotides were tested in a series of experiments that had the same culture conditions.
Differentiated SH-SY5Y cells plated at a density of 10,000 cells per well were treated by free uptake with various concentrations of modified oligonucleotide as specified in the tables below. […] APOE RNA levels were measured using the human primer probe set RTS3073 (described herein above). APOE RNA levels were normalized to human PPIA. Human PPIA was amplified using human primer probe set mk_cycloA_2nd (described herein above). Results are presented as percent APOE RNA, relative to the amount of APOE RNA in untreated control cells (% UTC). The half maximal inhibitory concentration (IC50) of each modified oligonucleotide was calculated in GraphPad Prism 10 (GraphPad Software, San Diego, CA) and is also presented in the tables below.

Substance	APOE RNA (% control) Cortex (human APOE RNA [1])	APOE RNA (% control) Spinal Cord (human APOE RNA [1])	APOE RNA (% control) Cortex (human APOE RNA [2])	APOE RNA (% control) Spinal Cord (human APOE RNA [2])	APOE RNA (% control) Cortex (human APOE RNA [3]; 112 days post-dose)	APOE RNA (% control) Cortex (human APOE RNA [3]; 140 days post-dose)	APOE RNA (% control) Spinal Cord (human APOE RNA [3]; 112 days post-dose)	APOE RNA (% control) Spinal Cord (human APOE RNA [3]; 140 days post-dose)	APOE RNA (% UTC) (human APOE RNA [4]; 5 nM)	APOE RNA (% UTC) (human APOE RNA [4]; 13 nM)	APOE RNA (% UTC) (human APOE RNA [4]; 33 nM)	APOE RNA (% UTC) (human APOE RNA [4]; 82 nM)	APOE RNA (% UTC) (human APOE RNA [4]; 205 nM)	APOE RNA (% UTC) (human APOE RNA [4]; 512 nM)	APOE RNA (% UTC) (human APOE RNA [4]; 1,280 nM)	APOE RNA (% UTC) (human APOE RNA [4]; 3,200 nM)	APOE RNA (% UTC) (human APOE RNA [4]; 8,000 nM)	APOE RNA (% UTC) (human APOE RNA [4]; 20,000 nM)	IC50 (human APOE RNA [4])	APOE RNA (% UTC) (human APOE RNA [5]; 5 nM)	other results
1746800 (k[5mC]*dT[ms]kT*dG[ms]dG[ms]kT*dG[ms]dA[ms]dA[ms]dT*d[5mC]*dT*dT*dT*dA[ms]dT*kT*dA[ms]kA*kA; antisense) [Compound 1746800]	41 % control	40 % control	40 % control	30 % control	52 % control	75 % control	88 % control	58 % control	108 % UTC	111 % UTC	137 % UTC	115 % UTC	97 % UTC	77 % UTC	87 % UTC	39 % UTC	35 % UTC	8 % UTC	3.27 µM	–	–
1747050 (k[5mC]*kT*kT*dG[ms]dG[ms]kT*dG[ms]dA[ms]dA[ms]dT*d[5mC]*dT*dT*dT*dA[ms]dT*kT*dA[ms]dA[ms]kA; antisense) [Compound 1747050]	29 % control	45 % control	36 % control	23 % control	63 % control	74 % control	93 % control	86 % control	182 % UTC	135 % UTC	115 % UTC	111 % UTC	110 % UTC	76 % UTC	49 % UTC	31 % UTC	14 % UTC	10 % UTC	1.54 µM	–	–
1746804 (k[5mC]*kT*kT*dG[ms]dG[ms]dT[ms]dG[ms]dA[ms]dA[ms]dT*d[5mC]*dT*dT*dT*dA[ms]dT*dT[ms]kA*kA*kA; antisense) [Compound 1746804]	51 % control and 46 % control	52 % control and 40 % control	40 % control	25 % control	37 % control	60 % control	205 % control	207 % control	89 % UTC	88 % UTC	80 % UTC	81 % UTC	66 % UTC	57 % UTC	45 % UTC	40 % UTC	4 % UTC	2 % UTC	0.68 µM	114 % UTC	APOE RNA (% UTC) (human APOE RNA [5]; 13 nM): 117 % UTC; APOE RNA (% UTC) (human APOE RNA [5]; 33 nM): 120 % UTC; APOE RNA (% UTC) (human APOE RNA [5]; 82 nM): 97 % UTC; APOE RNA (% UTC) (human APOE RNA [5]; 205 nM): 84 % UTC; APOE RNA (% UTC) (human APOE RNA [5]; 512 nM): 82 % UTC; APOE RNA (% UTC) (human APOE RNA [5]; 1,280 nM): 61 % UTC; APOE RNA (% UTC) (human APOE RNA [5]; 3,200 nM): 48 % UTC; APOE RNA (% UTC) (human APOE RNA [5]; 8,000 nM): 32 % UTC; APOE RNA (% UTC) (human APOE RNA [5]; 20,000 nM): 18 % UTC; IC50 (human APOE RNA [5]): 2.83 µM
1746784 (k[5mC]*kT*kT*dG[ms]dG[ms]dT[ms]dG[ms]dA[ms]dA[ms]dT*d[5mC]*dT*dT*dT*dA[ms]dT*kT*kA*dA[ms]kA; antisense) [Compound 1746784]	49 % control and 39 % control	26 % control	38 % control	138 % control	38 % control	45 % control	24 % control	56 % control	78 % UTC	74 % UTC	–	80 % UTC	61 % UTC	48 % UTC	29 % UTC	10 % UTC	7 % UTC	7 % UTC	0.31 µM	82 % UTC	APOE RNA (% UTC) (human APOE RNA [5]; 13 nM): 118 % UTC; APOE RNA (% UTC) (human APOE RNA [5]; 33 nM): 83 % UTC; APOE RNA (% UTC) (human APOE RNA [5]; 82 nM): 61 % UTC; APOE RNA (% UTC) (human APOE RNA [5]; 205 nM): 49 % UTC; APOE RNA (% UTC) (human APOE RNA [5]; 512 nM): 62 % UTC; APOE RNA (% UTC) (human APOE RNA [5]; 1,280 nM): 36 % UTC; APOE RNA (% UTC) (human APOE RNA [5]; 3,200 nM): 24 % UTC; APOE RNA (% UTC) (human APOE RNA [5]; 8,000 nM): 13 % UTC; APOE RNA (% UTC) (human APOE RNA [5]; 20,000 nM): 6 % UTC; IC50 (human APOE RNA [5]): 0.44 µM
